Measured values published in PMC12847094, “Casticin inhibits AKR1C3 and enhances abiraterone efficacy in castration-resistant prostate cancer” (Journal of Natural Medicines, 2025).
pIC50: −log10 of the molar value.

Target: T1, aldo-keto reductase 1C3 (AKR1C3) (Homo sapiens, UniProt P42330)
T1 construct: recombinant hAKR1C3 expressed in E. coli Rosetta (DE3), pET21b
Assay: NADPH oxidation at […] nm with […],10-phenanthrenequinone, recombinant enzyme; also coumberone reduction in […]1 cells
Type: biochemical

T1 sequence (P42330 whole entry): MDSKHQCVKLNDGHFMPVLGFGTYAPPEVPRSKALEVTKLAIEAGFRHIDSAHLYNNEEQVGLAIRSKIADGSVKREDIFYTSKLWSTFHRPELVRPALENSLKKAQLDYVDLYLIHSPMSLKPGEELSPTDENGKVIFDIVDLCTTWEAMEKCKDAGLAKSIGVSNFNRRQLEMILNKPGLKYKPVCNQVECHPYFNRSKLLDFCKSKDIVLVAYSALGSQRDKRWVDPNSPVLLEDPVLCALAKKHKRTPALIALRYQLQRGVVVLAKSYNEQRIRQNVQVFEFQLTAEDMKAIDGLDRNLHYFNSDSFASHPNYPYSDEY

COc1ccc(-c2oc3cc(OC)c(OC)c(O)c3c(=O)c2OC)cc1O [CAS, casticin]
pIC50: 5.22
